From ChEMBL document CHEMBL1255550, “Natural product derivatives with bactericidal activity against Gram-positive pathogens including methicillin-resistant Staphylococcus aureus and vancomycin-resistant Enterococcus faecalis” (2010)
Values after ≈ are worked out from the molar mass of the structure shown.

Columns and labels:
Assay type in all cases: functional
Enterococcus faecalis = assay: Antibacterial activity against vancomycin-resistant Enterococcus faecalis
Bacillus subtilis [1] = assay: Antibacterial activity against Bacillus subtilis
Bacillus anthracis = assay: Antibacterial activity against Bacillus anthracis
Staphylococcus aureus [2] = assay: Antibacterial activity against Staphylococcus aureus
Staphylococcus aureus [3] = assay: Antibacterial activity against methicillin-resistant Staphylococcus aureus
Bacillus subtilis [4] = assay: Antibacterial activity against Bacillus subtilis assessed as reduction of bacterial viability at 2 times MIC after 30mins

Row | SMILES | MIC (Enterococcus faecalis) [µg/mL] | MIC (Bacillus subtilis [1]) [µg/mL] | MIC (Bacillus anthracis) [µg/mL] | MIC (Staphylococcus aureus [2]) [µg/mL] | MIC (Staphylococcus aureus [3]) [µg/mL] | log10cfu (Bacillus subtilis [4])
1 | C[C@@H](C[C@@H]1CC[C@H]([C@@H](C)Cn2cc(-c3ccccn3)nn2)O1)OC(=O)c1ccccc1 (single isomer, unassigned) | > 630 | > 630 | > 630 | > 630 | – | –
2 | COC(=O)CCC(=O)O[C@H](C)C[C@H]1CC[C@@H]([C@H](C)Cn2cc(-c3cccc(NC(C)=O)c3)nn2)O1 | 61 (≈ 125 µM) | 91 (≈ 187 µM) | 180 (≈ 370 µM) | 370 (≈ 760 µM) | 122 (≈ 251 µM) | >3
3 | Br.COC(=O)CCC(=O)OC(C)CC1CCC(C(C)Cn2cc(-c3cccc(NC(C)=O)c3)nn2)O1 (racemic) | – | 180 | 370 | 370 | – | –
4 | CC(CC1CCC(C(C)Cn2cc(-c3ccccn3)nn2)O1)OC(=O)c1ccccc1 (racemic) | – | 40 (≈ 95.1 µM) | 630 (≈ 1500 µM) | 630 (≈ 1500 µM) | – | –
5 | C[C@H](C[C@H]1CC[C@@H]([C@H](C)Cn2cc(-c3ccccn3)nn2)O1)OC(=O)c1ccccc1 | 26 (≈ 61.8 µM) | 20 (≈ 47.6 µM) | 320 (≈ 761 µM) | 320 (≈ 761 µM) | 210 (≈ 499 µM) | –
6 | COC(=O)CCC(=O)O[C@@H](C)C[C@@H]1CC[C@H]([C@@H](C)Cn2cc(-c3cccc(NC(C)=O)c3)nn2)O1 (single isomer, unassigned) | > 730 | > 730 | > 730 | > 730 | – | –
